According to paper PMC6158786 (ACS chemical biology, 2018):
Positions count from the first letter of the chain named.

Tests used:
Format in all cases: biochemical
human BCO1 [1] = target: T1, human BCO1 (Homo sapiens, UniProt Q9HAY6); assay: inhibition of BC cleavage by E. coli crude extract, HPLC; conditions: 20 μM BC, 10 μM fenretinide, DMN micelles
T1 sequence (Q9HAY6 1-547): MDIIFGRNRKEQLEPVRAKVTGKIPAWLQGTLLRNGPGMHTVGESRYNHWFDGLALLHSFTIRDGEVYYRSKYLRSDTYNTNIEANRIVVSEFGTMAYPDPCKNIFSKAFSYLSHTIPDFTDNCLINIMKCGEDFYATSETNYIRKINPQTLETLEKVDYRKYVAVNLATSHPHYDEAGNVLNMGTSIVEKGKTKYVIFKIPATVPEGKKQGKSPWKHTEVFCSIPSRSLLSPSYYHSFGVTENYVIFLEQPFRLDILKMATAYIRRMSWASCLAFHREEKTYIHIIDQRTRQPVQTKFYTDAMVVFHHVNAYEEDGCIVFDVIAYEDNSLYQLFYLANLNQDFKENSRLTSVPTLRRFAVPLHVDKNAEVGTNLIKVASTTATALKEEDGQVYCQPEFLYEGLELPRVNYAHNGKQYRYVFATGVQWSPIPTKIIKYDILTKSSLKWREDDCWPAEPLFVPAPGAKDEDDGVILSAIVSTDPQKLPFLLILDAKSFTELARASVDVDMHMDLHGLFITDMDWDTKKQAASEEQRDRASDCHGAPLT

human BCO1 [2] = target: T1, human BCO1; assay: HPLC product formation; conditions: DMN micelles, pH 7, 30 °C, 12 min
human BCO1 [3] = target: T2, human BCO1 (Homo sapiens, UniProt Q9HAY6, W270F); assay: HPLC product formation with E. coli protein extract; conditions: DMN micelles, 30 °C; product all-trans-3-hydroxy-retinal
T2 sequence (Q9HAY6 1-547 W270F): T1 sequence (Q9HAY6 1-547) with W270F

human BCO1 [4] = target: T3, human BCO1 (Homo sapiens, UniProt Q9HAY6, L168G/W270F); assay: as above; conditions: DMN micelles, 30 °C; product all-trans-3-hydroxy-retinal
T3 sequence (Q9HAY6 1-547 L168G/W270F): T1 sequence (Q9HAY6 1-547) with L168G, W270F

CC1=C(/C=C/C(C)=C/C=C/C(C)=C/C(=O)Nc2ccc(O)cc2)C(C)(C)CCC1 [fenretinide]
inhibition at 10 μM (human BCO1 [1]): fenretinide, a known BCO1 inhibitor, efficiently inhibited the enzymatic activity of BCO1

CC1=C(/C=C/C(C)=C/C=C/C(C)=C/C=C/C=C(C)/C=C/C=C(C)/C=C/C2=C(C)CCCC2(C)C)C(C)(C)CCC1 [BC, β,β-carotene]
HPLC product formation (human BCO1 [2]; product all-trans-retinal): BCO1 catalyzed the production of all-trans-retinal from BC

CC1=C(/C=C/C(C)=C/C=C/C(C)=C/C=C/C=C(C)/C=C/C=C(C)/C=C/C2=C(C)C[C@@H](O)CC2(C)C)C(C)(C)C[C@H](O)C1 [ZEA, zeaxanthin]
HPLC product formation with E. coli protein extract (human BCO1 [3]): mutant BCO1 variants readily converted zeaxanthin to all-trans-3-hydroxy-retinal in repeated assays
HPLC product formation with E. coli protein extract (human BCO1 [4]): mutant BCO1 variants readily converted zeaxanthin to all-trans-3-hydroxy-retinal in repeated assays

CC1=C(/C=C/C(C)=C/C=C/C(C)=C/C=C/C=C(C)/C=C/C=C(C)/C=C/C2=C(C)C[C@@H](O)CC2(C)C)C(C)(C)CCC1 [CX, 3R-β,β-Caroten-3-ol]
HPLC product formation (human BCO1 [2]; products all-trans-retinal and 3-hydroxy-retinal): all-trans-retinal and all-trans-3-hydroxy-retinal resulting from CX cleavage displayed distinct retention times
